Measured values published in US4575498A, “Method for restoring depleted purine nucleotide pools” (priority 1983, dated 1986).

What was measured:
[1] = system: cardiac and skeletal muscle; experiment: Creatine phosphate content of cardiac and skeletal muscle; type: in vivo, mongrel dogs; details: throughout the study (6.8±0.4 and 10.6±0.5 μmol/g at beginning)
Description: Animal Preparation--Seven adult mongrel dogs were anesthetized intramuscularly with 40 mg of morphine sulfate and intravenously with 80 mg/kg of chloralose, an endotraceal tube was inserted, and ventilation was maintained with an Emerson volume-cycled respirator and 100% oxygen. The heart was exposed through a left lateral thoracotomy, polyvinyl chloride catheters (3-mm outer diameter) were inserted into the left atrium and into the aorta through the right femoral artery, and a Statham TTQ electromagnetic flow meter probe was positioned around the ascending aorta. The aortic pressure catheter was connected to a Statham P23Db transducer (Statham Instruments, Inc., Oxnard, CA) with the zero reference at the midchest level. Aortic flow was measured with a Howell Instruments Series 1000 Flowmeter, and stroke volume and cardiac output were calculated from the aortic flow measurement. All hemodynamic data were monitored continuously throughout the course of the study. […]
After hemodynamic parameters had stabilized, regional myocardial blood flow was measured by injecting radioactively labled microspheres. […] Venous and arterial blood samples were also obtained at 42 min. of infusion, and regional myocardial blood flow was measured at 10 and 39 min. of AICAriboside infusion. […]

[2] = system: myocardium; experiment: Regional myocardial blood flow, coronary occlusion and reperfusion; type: in vivo, dogs; details: any time point
Description: Catheters were placed in the left atrium and aorta, and a snare positioned around the left anterior descending coronary artery in 15 open-chest dogs. Regional myocardial blood flow was measured and transmural tissue samples were obtained using known techniques. Blood flow measurements and tissue samples were obtained prior to and just before release of a 12-minute coronary occlusion. The chest was closed and the animals allowed to awaken. Twenty-four hours later, the animals were anesthetized, the chest opened, blood flow measured, and tissue samples obtained. No hemodynamic measurements were made on the animals.
In seven animals, 200 mM AICAriboside (Sigma Chemical Co.) was infused into the left atrial catether at either 14 μmol/min (n=2) or 37 μmol/min (n=5) beginning with coronary occlusion and continuing for 24 hours. Eight control animals were infused with an equal volume of saline over 24 hours.
All comparisons between AICAriboside and saline treated animals were done by unpaired analyses.

[3] = system: cardiac muscle; experiment: AICAriboside infusion in normal myocardium: nucleotide, nucleoside and base content of cardiac muscle biopsies; details: for TAN: total adenine nucleotide
[4] = cardiac muscle, 10 min postinfusion
[5] = cardiac muscle, 10 min postinfusion, P < 0.05 vs control
[6] = cardiac muscle, 15 min of AICAriboside infusion
[7] = cardiac muscle, 20 min postinfusion
[8] = cardiac muscle, 20 min postinfusion, P < 0.05 vs control
[9] = cardiac muscle, 30 min of AICAriboside infusion
[10] = cardiac muscle, 30 min of AICAriboside infusion, P < 0.05 vs control
[11] = cardiac muscle, 30 min postinfusion
[12] = cardiac muscle, 30 min postinfusion, P < 0.05 vs control
[13] = cardiac muscle, 42 min of AICAriboside infusion
[14] = cardiac muscle, 60 min postinfusion

NC(=O)c1ncn([C@@H]2O[C@H](CO)[C@@H](O)[C@H]2O)c1N [AICAriboside, 5-amino-4-imidazolecarboxamide riboside]
creatine phosphate content [1]: did not vary significantly
regional flow vs saline group [2]: no differences
myocardial content of CTP ([3]; AICAriboside infusion): no detectable change
mean content of AICAriboside in cardiac muscle greater than that of skeletal muscle ([3]; after 30 min of infusion): 66%
adenylosuccinate in biopsies ([3]; before, during or after infusion, lower limit of detection 3 nmol/g, wet weight): not detectable
adenylate energy charge ([3]; cardiac muscle, 0.929±0.003 before infusion, during course of experiment): did not vary
ADP [3, 4]: 0.83 ± 0.05 μmol/g, wet weight
AMP [3, 4]: 0.054 ± 0.007 μmol/g, wet weight
Hyp (hypoxanthine) [3, 4]: 0.016 ± 0.008 μmol/g, wet weight
Ino (inosine) [3, 4]: 0.009 ± 0.001 μmol/g, wet weight
ATP [3, 5]: 6.07 ± 0.17 μmol/g, wet weight
IMP [3, 5]: 0.018 ± 0.003 μmol/g, wet weight
ADP [3, 6]: 0.77 ± 0.06 μmol/g, wet weight
AMP [3, 6]: 0.056 ± 0.008 μmol/g, wet weight
ATP [3, 6]: 5.77 ± 0.24 μmol/g, wet weight
IMP [3, 6]: 0.020 ± 0.007 μmol/g, wet weight
ADP [3, 7]: 0.81 ± 0.04 μmol/g, wet weight
AMP [3, 7]: 0.054 ± 0.005 μmol/g, wet weight
Hyp (hypoxanthine) [3, 7]: 0.007 ± 0.002 μmol/g, wet weight
IMP [3, 7]: 0.017 ± 0.005 μmol/g, wet weight
Ino (inosine) [3, 7]: 0.007 ± 0.001 μmol/g, wet weight
ATP [3, 8]: 5.83 ± 0.14 μmol/g, wet weight
ADP [3, 9]: 0.82 ± 0.03 μmol/g, wet weight
AMP [3, 9]: 0.050 ± 0.005 μmol/g, wet weight
Hyp (hypoxanthine) [3, 9]: 0.013 ± 0.006 μmol/g, wet weight
IMP [3, 9]: 0.030 ± 0.021 μmol/g, wet weight
Ino (inosine) [3, 9]: 0.012 ± 0.001 μmol/g, wet weight
ATP [3, 10]: 5.89 ± 0.16 μmol/g, wet weight
ADP [3, 11]: 0.84 ± 0.03 μmol/g, wet weight
AMP [3, 11]: 0.055 ± 0.006 μmol/g, wet weight
Hyp (hypoxanthine) [3, 11]: 0.003 ± 0.002 μmol/g, wet weight
Ino (inosine) [3, 11]: 0.009 ± 0.002 μmol/g, wet weight
ATP [3, 12]: 5.98 ± 0.07 μmol/g, wet weight
IMP [3, 12]: 0.016 ± 0.003 μmol/g, wet weight
ADP [3, 13]: 0.77 ± 0.03 μmol/g, wet weight
AMP [3, 13]: 0.053 ± 0.007 μmol/g, wet weight
ATP [3, 13]: 5.77 ± 0.28 μmol/g, wet weight
IMP ([3]; cardiac muscle, 42 min of AICAriboside infusion, P < 0.05 vs control): 0.019 ± 0.006 μmol/g, wet weight
ADP [3, 14]: 0.82 ± 0.04 μmol/g, wet weight
AMP [3, 14]: 0.052 ± 0.006 μmol/g, wet weight
ATP [3, 14]: 5.72 ± 0.27 μmol/g, wet weight
Hyp (hypoxanthine) [3, 14]: 0.001 ± 0.001 μmol/g, wet weight
Ino (inosine) [3, 14]: 0.006 ± 0.001 μmol/g, wet weight
IMP ([3]; cardiac muscle, 60 min postinfusion, P < 0.05 vs control): 0.017 ± 0.003 μmol/g, wet weight
increase in IMP content ([3]; cardiac muscle, AICAriboside infusion): 3-4 fold
maximum UTP content ([3]; cardiac muscle, from basal 0.126±0.009, p<0.005): 0.157±0.006 μmol/g, wet weight
guanine nucleotide content (GDP+GTP) ([3]; cardiac muscle, significant at one time point only): tended to increase
dogs with guanine nucleotide pool remaining elevated ([3]; cardiac muscle, up to 60 min after infusion discontinued): 6 of 7
adenosine content ([3]; cardiac or skeletal muscle, during infusion): did not increase
AMP and ADP content change ([3]; cardiac tissue, any time point): did not change significantly
increased ATP content ([3]; cardiac tissue, from 5.55±0.17, p<0.02): 6.07±0.17 μmol/g, wet weight
accumulation of AICAriboside-TP ([3]; cardiac vs skeletal muscle, quantitated with extinction coefficient of AICAR): greater in cardiac muscle
maximum TAN (total adenine nucleotide) ([3]; heart muscle, from basal 6.40±0.20, p<0.005): 6.96±0.20 μmol/g, wet weight
content of NAD^+ ([3]; heart, throughout infusion, did not vary): 0.64 ± 0.01 µmol/g
UTP pool increase ([3]; myocardial cells, following AICAriboside infusion): 25%
content of inosine and hypoxanthine ([3]; myocardial, throughout the study): only minimally increased
TAN [3, 5]: 6.96 ± 0.20 μmol/g, wet weight
TAN [3, 6]: 6.59 ± 0.29 μmol/g, wet weight
TAN [3, 8]: 6.70 ± 0.10 μmol/g, wet weight
TAN [3, 10]: 6.77 ± 0.16 μmol/g, wet weight
TAN [3, 12]: 6.87 ± 0.10 μmol/g, wet weight
TAN [3, 13]: 6.59 ± 0.27 μmol/g, wet weight
TAN [3, 14]: 6.59 ± 0.24 μmol/g, wet weight
